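Five concentrations, 48 hours, 96-well plates. GI50 = concentration required for 50% inhibition of growth.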 Calls of active or inactive are those of the source. Cut-off read from the data, not from the text of the source: active = GI50 up to about 1.1 µM and inactive = higher.
What was measured:
Assay in all cases: NCI tumour cell line growth inhibition, 48 h
K562 = tested on: K562
OVCAR-3 = tested on: OVCAR-3
SF-268 = tested on: SF-268
NCI/ADR-RES = tested on: NCI/ADR-RES
HCT-116 = tested on: HCT-116
786-0 = tested on: 786-0
NCI-H460 = tested on: NCI-H460
SNB-19 = tested on: SNB-19
SN12C = tested on: SN12C
SF-295 = tested on: SF-295
UO-31 = tested on: UO-31
HL-60 = tested on: HL-60
HCT-15 = tested on: HCT-15
IGROV-1 = tested on: IGROV-1
U-251 = tested on: U-251
RPMI-8226 = tested on: RPMI-8226
NCI-H522 = tested on: NCI-H522
MOLT-4 = tested on: MOLT-4
KM12 = tested on: KM12

SMILES | GI50 (K562) | GI50 (OVCAR-3) | GI50 (SF-268) | GI50 (NCI/ADR-RES) | GI50 (HCT-116) | GI50 (786-0) | GI50 (NCI-H460) | GI50 (SNB-19) | GI50 (SN12C) | GI50 (SF-295) | GI50 (UO-31) | GI50 (HL-60) | GI50 (HCT-15) [µM] | GI50 (IGROV-1) | GI50 (U-251) | GI50 (RPMI-8226) | GI50 (NCI-H522) | GI50 (MOLT-4) | GI50 (KM12)
CC1(C)OC2C(CO)OC(n3cnc(N)nc3=O)C2O1 (stereo not given) | > 100 µM (inactive) | > 100 µM (inactive) | > 100 µM (inactive) | > 100 µM (inactive) | > 100 µM (inactive) | > 100 µM (inactive) | > 100 µM (inactive) | > 100 µM (inactive) | > 100 µM (inactive) | > 100 µM (inactive) | > 100 µM (inactive) | > 100 µM (inactive) | > 100 | > 100 µM (inactive) | > 100 µM (inactive) | > 100 µM (inactive) | > 100 µM (inactive) | > 100 µM (inactive) | –
COc1ccc(-c2c(=O)[nH]n3c(=S)[nH]c(-c4ccccc4)nc23)cc1OC | 12.9 µM (inactive) | – | 19.4 µM (inactive) | 21.3 µM (inactive) | 16.6 µM (inactive) | 17.2 µM (inactive) | 29 µM (inactive) | 15 µM (inactive) | 16.2 µM (inactive) | 20.8 µM (inactive) | 17 µM (inactive) | 18 µM (inactive) | 17.3 | 23.8 µM (inactive) | 17.5 µM (inactive) | – | 17.5 µM (inactive) | 8.51 µM (inactive) | 17.7 µM (inactive)
CC(=O)C(C)(C)CCC(C)(C)C(C)=O | > 100 µM (inactive) | – | > 100 µM (inactive) | > 100 µM (inactive) | > 100 µM (inactive) | > 100 µM (inactive) | > 100 µM (inactive) | > 100 µM (inactive) | > 100 µM (inactive) | > 100 µM (inactive) | > 100 µM (inactive) | > 100 µM (inactive) | > 100 | > 100 µM (inactive) | > 100 µM (inactive) | – | > 100 µM (inactive) | > 100 µM (inactive) | > 100 µM (inactive)
CN(C)c1ccc(/C=N/c2ccc(-c3nc4ccccc4s3)cc2)cc1 | 28.8 µM (inactive) | 15.9 µM (inactive) | – | 28.9 µM (inactive) | 33 µM (inactive) | 20.2 µM (inactive) | 27.4 µM (inactive) | 57.9 µM (inactive) | 36.1 µM (inactive) | 4.54 µM (inactive) | 43.8 µM (inactive) | 0.0408 µM (active) | 32.1 | 36.2 µM (inactive) | 29.2 µM (inactive) | 25.6 µM (inactive) | 18.1 µM (inactive) | 23.2 µM (inactive) | 24.9 µM (inactive)
CCCC(CCC(N)=O)(CCC(N)=O)[N+](=O)[O-] | > 100 µM (inactive) | – | > 100 µM (inactive) | > 100 µM (inactive) | > 100 µM (inactive) | > 100 µM (inactive) | > 100 µM (inactive) | > 100 µM (inactive) | > 100 µM (inactive) | > 100 µM (inactive) | > 100 µM (inactive) | > 100 µM (inactive) | > 100 | > 100 µM (inactive) | > 100 µM (inactive) | > 100 µM (inactive) | 26.5 µM (inactive) | > 100 µM (inactive) | > 100 µM (inactive)
CCOC(=O)c1c(N2CCCC2)[nH]c(=O)c(C(c2ccco2)c2c(O)c(C(=O)OCC)c(N3CCCC3)[nH]c2=O)c1O | > 100 µM (inactive) | > 100 µM (inactive) | 85.3 µM (inactive) | > 100 µM (inactive) | > 100 µM (inactive) | 29.2 µM (inactive) | > 100 µM (inactive) | 38.7 µM (inactive) | > 100 µM (inactive) | 40.3 µM (inactive) | > 100 µM (inactive) | > 100 µM (inactive) | > 100 | – | 73.8 µM (inactive) | 84.3 µM (inactive) | 84.9 µM (inactive) | > 100 µM (inactive) | > 100 µM (inactive)
O=C(c1ccc(-c2ccccc2)cc1)N(Cc1cccnc1)C(=S)N(Cc1cccnc1)C(=O)c1ccc(-c2ccccc2)cc1 | 0.394 µM (active) | > 100 µM (inactive) | > 100 µM (inactive) | > 100 µM (inactive) | 63.8 µM (inactive) | > 100 µM (inactive) | > 100 µM (inactive) | > 100 µM (inactive) | > 100 µM (inactive) | > 100 µM (inactive) | 51.9 µM (inactive) | 24.5 µM (inactive) | 87.3 | – | > 100 µM (inactive) | 3.56 µM (inactive) | > 100 µM (inactive) | 0.198 µM (active) | 56.6 µM (inactive)
COc1cc(C2CC(C)(N3CCCC3)Oc3cc4c(cc32)OCO4)cc(OC)c1OC (stereo not given) | 0.0371 µM (active) | 0.129 µM (active) | 0.745 µM (active) | 0.582 µM (active) | 0.299 µM (active) | 0.383 µM (active) | 0.288 µM (active) | 0.277 µM (active) | 0.288 µM (active) | 0.0762 µM (active) | 0.624 µM (active) | 0.13 µM (active) | 0.12 | 0.31 µM (active) | 0.279 µM (active) | – | 0.2 µM (active) | 0.21 µM (active) | 0.182 µM (active)
Oc1c([Si](c2ccccc2)(c2ccccc2)c2ccccc2)cc2ccccc2c1-c1c(O)c([Si](c2ccccc2)(c2ccccc2)c2ccccc2)cc2ccccc12 | 34.1 µM (inactive) | – | > 100 µM (inactive) | > 100 µM (inactive) | – | > 100 µM (inactive) | > 100 µM (inactive) | > 100 µM (inactive) | – | > 100 µM (inactive) | > 100 µM (inactive) | > 100 µM (inactive) | > 100 | > 100 µM (inactive) | > 100 µM (inactive) | > 100 µM (inactive) | > 100 µM (inactive) | 42.2 µM (inactive) | > 100 µM (inactive)
CCCCOCCOC1=CC(=O)c2c(O)ccc(O)c2C1=O | 2 µM (inactive) | 1.67 µM (inactive) | 1.76 µM (inactive) | 2.12 µM (inactive) | 1.49 µM (inactive) | 1.67 µM (inactive) | 1.82 µM (inactive) | 1.75 µM (inactive) | 1.66 µM (inactive) | 1.66 µM (inactive) | 1.64 µM (inactive) | 0.506 µM (active) | – | 1.91 µM (inactive) | 1.7 µM (inactive) | 2.91 µM (inactive) | 1.58 µM (inactive) | 1.28 µM (inactive) | 1.75 µM (inactive)
O=[N+]([O-])c1ccc(C(Nc2ccccc2)P(c2ccccc2)c2ccccc2)cc1 (stereo not given) | 22.5 µM (inactive) | – | > 100 µM (inactive) | > 100 µM (inactive) | 8.81 µM (inactive) | > 100 µM (inactive) | > 100 µM (inactive) | > 100 µM (inactive) | > 100 µM (inactive) | 44.7 µM (inactive) | > 100 µM (inactive) | > 100 µM (inactive) | > 100 | > 100 µM (inactive) | > 100 µM (inactive) | – | > 100 µM (inactive) | 24.1 µM (inactive) | > 100 µM (inactive)
COc1ccc(/C=c2\c(=O)[nH]c3nc4ccccc4c(=O)n23)cc1 | – | 81.5 µM (inactive) | > 100 µM (inactive) | > 100 µM (inactive) | 70 µM (inactive) | 99.5 µM (inactive) | – | > 100 µM (inactive) | 55.1 µM (inactive) | > 100 µM (inactive) | 44.7 µM (inactive) | 36.2 µM (inactive) | 64 | 68.4 µM (inactive) | > 100 µM (inactive) | 58.3 µM (inactive) | 37.3 µM (inactive) | 56.5 µM (inactive) | 73.5 µM (inactive)
C=CCOc1ccc(C2C(C(=O)OC)C(=O)CC(O)(c3ccccc3)C2C(=O)OC)cc1OC (stereo not given) | 51.2 µM (inactive) | 45.6 µM (inactive) | 20.5 µM (inactive) | 22.8 µM (inactive) | 20 µM (inactive) | 17 µM (inactive) | 30.3 µM (inactive) | > 100 µM (inactive) | 41.7 µM (inactive) | 26.9 µM (inactive) | 22.4 µM (inactive) | 31.6 µM (inactive) | > 100 | 34.7 µM (inactive) | 32 µM (inactive) | – | 22.4 µM (inactive) | 27.5 µM (inactive) | 23.5 µM (inactive)
Cc1cn(C2CC(N=[N+]=[N-])C(COP(=O)(O)OCC3OC(n4cc(F)c(=O)[nH]c4=O)CC3O)O2)c(=O)[nH]c1=O (stereo not given) | – | > 100 µM (inactive) | 0.442 µM (active) | 0.57 µM (active) | 4.21 µM (inactive) | 0.381 µM (active) | 0.0292 µM (active) | > 31.6 µM (inactive) | > 100 µM (inactive) | 0.337 µM (active) | 0.465 µM (active) | 9.1 µM (inactive) | > 100 | 2.88 µM (inactive) | > 25.5 µM (inactive) | 0.311 µM (active) | > 100 µM (inactive) | 2.22 µM (inactive) | > 26.4 µM (inactive)
CNC(=O)N1CCN(C(=O)NC)CCN(C(=O)NC)CC1 | > 100 µM (inactive) | – | > 100 µM (inactive) | > 100 µM (inactive) | > 100 µM (inactive) | > 100 µM (inactive) | > 100 µM (inactive) | > 100 µM (inactive) | > 100 µM (inactive) | > 100 µM (inactive) | > 100 µM (inactive) | > 100 µM (inactive) | > 100 | > 100 µM (inactive) | > 100 µM (inactive) | > 100 µM (inactive) | > 100 µM (inactive) | > 100 µM (inactive) | –
CC(=O)O[C@H]1C(=O)[C@@]2(C)[C@H]([C@H](OC(=O)c3ccccc3)[C@]3(O)C[C@H](OC(=O)[C@H](O)[C@@H](NC(=O)CC(C)C)c4ccccc4)C(C)=C1C3(C)C)[C@]1(OC(C)=O)CO[C@@H]1C[C@@H]2O | 0.00179 µM (active) | – | 0.00486 µM (active) | > 8.61 µM (inactive) | 0.00167 µM (active) | 0.0378 µM (active) | 0.00334 µM (active) | 0.607 µM (active) | 0.00524 µM (active) | 0.0445 µM (active) | 2.48 µM (inactive) | 0.00111 µM (active) | 0.547 | 0.00285 µM (active) | 0.00879 µM (active) | < 0.001 µM (active) | 0.00247 µM (active) | 0.00149 µM (active) | –

Reference: ChEMBL document CHEMBL1201862, “PubChem BioAssay data set” (2004)
